The results in this text go back to patent publication US12291519B2, “2-hydroxycycloalkane-1-carbamoyl” (Idorsia Pharmaceuticals Ltd, priority 2019, dated 2025).

One assay deals with human Gal-1 (hGal-1). The assay is described as follows: Competitive binding assay: biotinylated hGal-1 binding to microplate-adsorbed asialofetuin (ASF). Particulars: Activity on hGal-1; binding of biotinylated hGal-1 to ASF-coated plates; mean values. A digest of the protocol:
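Biotinylated hGal-1 (300–1000 ng/mL; optionally a cysteine-free all-serine variant) incubated 3 h at 4 °C with compound on asialofetuin-coated plates, then streptavidin-peroxidase 1 h at 4 °C. ABTS readout at OD 410 nm after 30–45 min; IC50 given as mean of several runs.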

The next assay has as its target human Gal-3 (hGal-3) (Homo sapiens (Human), UniProt P17931). The experiment in a line: Competitive binding assay: biotinylated hGal-3 binding to microplate-adsorbed asialofetuin (ASF). To be noted: Activity on hGal-3; binding of biotinylated hGal-3 to ASF-coated plates; mean values. In short, it runs like this:
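Serially diluted compounds competed with biotinylated human Gal-3 for binding to plate-adsorbed asialofetuin over 3 h at 4 °C. Bound Gal-3 was detected with streptavidin-peroxidase (80 ng/mL, 1 h, 4 °C) and ABTS substrate. IC50 values are means of several measurements.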

Chain of human Gal-3 (hGal-3) (P17931 whole entry): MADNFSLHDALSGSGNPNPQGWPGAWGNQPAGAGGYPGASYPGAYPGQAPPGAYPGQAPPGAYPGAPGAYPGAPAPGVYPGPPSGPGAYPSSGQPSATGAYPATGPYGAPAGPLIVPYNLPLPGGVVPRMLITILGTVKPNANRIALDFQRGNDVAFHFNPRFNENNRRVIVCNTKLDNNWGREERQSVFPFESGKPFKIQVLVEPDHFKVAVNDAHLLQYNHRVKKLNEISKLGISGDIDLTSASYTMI
Chain of human Gal-1 (hGal-1) (P09382 2-135 limits assumed): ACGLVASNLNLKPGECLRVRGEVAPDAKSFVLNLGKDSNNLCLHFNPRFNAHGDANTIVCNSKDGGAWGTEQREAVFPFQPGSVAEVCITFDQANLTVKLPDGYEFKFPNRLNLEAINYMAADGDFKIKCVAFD

On to `CO[C@@H]1[C@@H](n2cc(-c3cc(F)c(F)c(F)c3)nn2)[C@@H](O)[C@@H](CO)O[C@H]1C(=O)N(Cc1nc2ccccc2cc1Cl)[C@H]1CCCC[C@@H]1O` [Example 65, (2R,3R,4S,5R,6R)-N-((3-chloroquinolin-2-yl)methyl)-5-hydroxy-N-((1S,2S)-2-hydroxycyclohexyl)-6-(hydroxymethyl)-3-methoxy-4-(4-(3,4,5-trifluorophenyl)-1H-1,2,3-triazol-1-yl)tetrahydro-2H-pyran-2-carboxamide], for which the figures for the IC50 on human Gal-1 (hGal-1) and on human Gal-3 (hGal-3) were 6770 nM and 196 nM, respectively.
In the same order, the values of `O=C([C@@H]1O[C@H](CO)[C@H](O)[C@H](n2cc(-c3cc(F)c(F)c(Cl)c3)nn2)[C@H]1O)N(Cc1ccccc1C(F)(F)F)[C@H]1CCCC[C@@H]1O` [Example 66, (2R,3R,4S,5R,6R)-4-(4-(3-chloro-4,5-difluorophenyl)-1H-1,2,3-triazol-1-yl)-3,5-dihydroxy-N-((1S,2S)-2-hydroxycyclohexyl)-6-(hydroxymethyl)-N-(2-(trifluoromethyl)benzyl)tetrahydro-2H-pyran-2-carboxamide] are 534 nM and 95 nM.
In the case of `CC(=O)O[C@@H]1[C@@H](n2cc(-c3cc(F)c(Cl)c(F)c3)nn2)[C@@H](O)[C@@H](CO)O[C@H]1C(=O)N(Cc1ccccc1C(F)(F)F)[C@H]1CCCC[C@@H]1O` [Example 68, (2R,3R,4S,5R,6R)-4-(4-(4-chloro-3,5-difluorophenyl)-1H-1,2,3-triazol-1-yl)-5-hydroxy-2-(((1S,2S)-2-hydroxycyclohexyl)(2-(trifluoromethyl)benzyl)carbamoyl)-6-(hydroxymethyl)tetrahydro-2H-pyran-3-yl acetate], the figures for the IC50 on human Gal-1 (hGal-1) and on human Gal-3 (hGal-3) were 1170 nM and 44 nM, respectively.
For `O=C([C@@H]1O[C@H](CO)[C@H](O)[C@H](n2cc(-c3cc(F)c(Br)c(F)c3)nn2)[C@H]1O)N(Cc1ccccc1C(F)(F)F)[C@H]1CCCC[C@@H]1O` [Example 69, (2R,3R,4S,5R,6R)-4-(4-(4-bromo-3,5-difluorophenyl)-1H-1,2,3-triazol-1-yl)-3,5-dihydroxy-N-((1S,2S)-2-hydroxycyclohexyl)-6-(hydroxymethyl)-N-(2-(trifluoromethyl)benzyl)tetrahydro-2H-pyran-2-carboxamide], in that order: 2570 nM and 84 nM.
In the same order, the values of `O=C([C@@H]1O[C@H](CO)[C@H](O)[C@H](n2cc(-c3ccc(Br)c(F)c3)nn2)[C@H]1O)N(Cc1ccccc1C(F)(F)F)[C@H]1CCCC[C@@H]1O` [Example 70, (2R,3R,4S,5R,6R)-4-(4-(4-bromo-3-fluorophenyl)-1H-1,2,3-triazol-1-yl)-3,5-dihydroxy-N-((1S,2S)-2-hydroxycyclohexyl)-6-(hydroxymethyl)-N-(2-(trifluoromethyl)benzyl)tetrahydro-2H-pyran-2-carboxamide] are 615 nM and 90 nM.
Consider `O=C([C@@H]1O[C@H](CO)[C@H](O)[C@H](n2cc(-c3nc(Cl)cs3)nn2)[C@H]1O)N(Cc1ccccc1C(F)(F)F)[C@H]1CCCC[C@@H]1O` [Example 71, (2R,3R,4S,5R,6R)-4-(4-(4-chlorothiazol-2-yl)-1H-1,2,3-triazol-1-yl)-3,5-dihydroxy-N-((1S,2S)-2-hydroxycyclohexyl)-6-(hydroxymethyl)-N-(2-(trifluoromethyl)benzyl)tetrahydro-2H-pyran-2-carboxamide], for which the IC50 on human Gal-1 (hGal-1) came out at 1310 nM; on human Gal-3 (hGal-3), 143 nM.
For `COc1cccc(N(C(=O)[C@@H]2O[C@H](CO)[C@H](O)[C@H](n3cc(-c4cccc(F)c4)nn3)[C@H]2OC)[C@H]2CCCC[C@@H]2O)c1` [Example 73, (2R,3R,4S,5R,6R)-4-(4-(3-fluorophenyl)-1H-1,2,3-triazol-1-yl)-5-hydroxy-N-((1S,2S)-2-hydroxycyclohexyl)-6-(hydroxymethyl)-3-methoxy-N-(3-methoxyphenyl)tetrahydro-2H-pyran-2-carboxamide], in that order: 1540 nM and 69 nM.
